Test results: ChEMBL document CHEMBL1208702, “Use of 2-[(18)F]fluoroethylazide for the Staudinger ligation - Preparation and characterisation of GABA(A) receptor binding 4-quinolones” (Bioorg Med Chem Lett, 2010)

Assay: Displacement of [3H]Ro151788 from GABA-A receptor in Wistar rat cerebellar membrane after 1 hr by liquid scintillation counting
Format: cell membranes, Cerebellum

Ki: 3.6 nM
SMILES: CCc1ccc2[nH]cc(C(=O)NCCF)c(=O)c2c1
